{"source": "patent US4812443A", "about": "“Methods for enhancing differentiation and proliferation of hematopoietic progenitor cells” (Kuraray Co., Ltd., priority 1984, dated 1989)", "key": {"corneal reflex": {"tested_on": "corneal reflex", "assay": "Local anesthetic action in guinea pigs (corneal reflex)", "format": "in vivo, guinea pig (Hartley-strain)", "details": "up to 0.1%, dropped into the eyes", "excerpt": "(§1) Since the dolichol is a water-insoluble oily liquid, it was used as a solution in sesame oil in the case of oral administration, and as a suspension in a nonionic surfactant (HCO-60, a trade name for a product of Nikko Chemical Co., Ltd.) in the case of intraperitoneal administration and in an in vitro test in the following experiment.\n(§2) In the following experiment, ddY-strain male mice, Wistar-strain male rats (Shizuoka Laboratory Animal Center), Japanese white male rabbits (Carely) and Hartley-strain male guinea pigs (Clea Japan Inc.) were used. The animals were kept under conditions including a temperature of 23±1° C., a humidity of 55±10%, an illuminating time (7:00 am to 9.00 pm) and 15 ventilations per hour. The mice and rats were fed with solid feeds MF (a product of Oriental Yeast Co., Ltd.) and the guinea pigs and rabbits were fed with solid feeds GM-3 and RM-1 (Funabashi Farm Co.). They were allowed to take tap water freely. The animals were preliminarily kept for more than one week, and those which were healthy in general conditions were used in the experiments.\nHartley-strain male guinea pigs (370-440 g), 3 per group, were used. Dolichol was dropped in a concentration of 0.001%, 0.01% and 0.1%, respectively, into the eyes of the guinea pigs. […]"}, "extracted atrium": {"tested_on": "extracted atrium", "assay": "Peripheral action, extracted atrium of guinea pigs", "parameters": "species or system guinea pig (Hartley-strain)", "details": "10^-6, 10^-5 and 10^-4 g/ml; 30° C.", "excerpt": "as §1, §2\nHartley-strain male guinea pigs (350-400 g), 3 per group, were used. […] The contraction of the atria was recorded on an ink-writing oscillograph (EMP-3004, Nippon Photoelectric Co.) through an FD pick-up (TB-611T, Nippon Photoelectric Co.). […]"}, "Diuretic action in rats": {"assay": "Diuretic action in rats", "format": "in vivo, rat (Wistar-strain)", "details": "150, 300 and 600 mg/kg; 6 hours after administration; vs control", "excerpt": "as §1, §2\nWistar-strain male rats (80-90 g), 6 per group, were used. Immediately after administration of dolichol to the rats, normal saline solution was orally administered to the rats in a dose of 2.5 ml/100 g. […] Urine was taken 6 hours after administration of dolichol, and its amount was measured."}, "mice": {"tested_on": "mice", "assay": "Neuropharmacological test using mice (Irwin's method)", "format": "in vivo, mouse (ddY-strain)", "details": "150, 300 and 600 mg/kg i.p.", "excerpt": "as §1, §2\nddY-strain male mice, 6 per group, were used, and their changes in behavior, nervous symptoms, autonomic nervous symptoms and toxic symptoms were observed, analyzed and recorded in accordance with the Irwin's method of observation. […]"}, "extracted ileum": {"tested_on": "extracted ileum", "assay": "Peripheral action, extracted ileum of guinea pigs", "parameters": "species or system guinea pig (Hartley-strain)", "details": "up to 10^-4 g/ml; 32° C.", "excerpt": "as §1\nIn the following experiment, ddY-strain male mice, Wistar-strain male rats (Shizuoka Laboratory Animal Center), Japanese white male rabbits (Carely) and Hartley-strain male guinea pigs (Clea Japan Inc.) were used. The animals were kept under conditions including a temperature of 23±1° C., a humidity of 55±10%, an illuminating time (7:00 am to 9.00 pm) and 15 ventilations per hour. […]\nHartley-strain male guinea pigs (350 to 400 g), 3 per group, were used, and the extracted ileum samples were suspended in Tyrode solution at 32° C. through which air was introduced. The contraction of the ileum was recorded on an ink-writing oscillograph (EMP-3004, Nippon Photoelectric Co. through an isotonic transducer (TD-112S, Nippon Photoelectric Co.). The direct action of dolichol and the antagonistic action of dolichol against acetylcholine, histamine and nicotine in a concentration of 10^-6 g/ml, 10^-5 g/ml, and 10^-4 g/ml, respectively, were examined."}, "Water solubility": {"assay": "Water solubility", "format": "physicochemical"}, "erythropoiesis": {"tested_on": "erythropoiesis", "assay": "Erythropoiesis in vivo, 59Fe incorporation in phenylhydrazine-induced anemic mice (Run 6)", "parameters": "species or system mouse (BDF1-strain)", "details": "250 mg/kg twice i.p.", "method": "Phenylhydrazine was administered to normal mice and hereditarily anemic mice to induce severe hemolytic anemia. Then, the rate of erythropoiesis during recovering of anemia was determined by measuring the rate of radioactive iron (^59 Fe) incorporation into newly formed red blood cells [P. M. Cotes, D. R. Bangham, Nature (London), 191, 1067 (1961)]. The testing method and results are described below.\nPhenylhydrazine hydrochloride (60 mg/kg) dissolved in normal saline solution was subcutaneously injected into BDF1 -strain mice (6 weeks old, female) three times, namely on the 1st, 2nd and 4th day of the experiment to produce phenylhydrazine-induced anemic mice. Dolichol in a dose of 250 mg/kg (25 mg of dolichol was emulsified in 1 ml of a 1% aqueous solution of sodium carboxymethyl cellulose; 0.2 ml/20 g of the body weight) was intraperitoneally administered to the mice twice, namely on the 1st and 2nd day. […] On the 6th day, 0.5 ml of the whole blood was taken from each mouse, and the radioactivity of ^59 Fe incorporated into the whole blood during the period of 48 hours was measured by an auto-gamma-counter. […] By assuming that the amount of the whole blood of each mouse was 7% of the body weight, the ^59 Fe incorporation rates were calculated in accordance with the following equation and averaged. […]"}, "[1]": {"tested_on": "maximal electroshock seizure", "assay": "Anticonvulsive action (maximal electroshock seizure) in mice", "format": "in vivo, mouse (ddY-strain)", "details": "150, 300 and 600 mg/kg; one hour after administration; 40 mA, 0.4 msec, 50 Hz, 0.5 sec; vs control", "excerpt": "as §1, §2\nddY-male mice (27-30 g), 6 per group, were used. One hour after administration of dolichol to the mice, an electric current was passed through the corneas of the mice under conditions of 40 mA, 0.4 msec, 50 Hz and 0.5 sec, and the time of duration of tonic extension (T. E.) was measured."}, "blood coagulation system": {"tested_on": "blood coagulation system", "assay": "Effect on the blood coagulation system in rats (Quick's one-step method)", "format": "in vivo, rat (Wistar-strain)", "details": "150, 300 and 600 mg/kg; two hours after administration; vs control", "excerpt": "as §1, §2\nWistar-strain male rats (180-210 g), 6 per group, were used. Two hours after administration of dolichol to rats, the blood was taken from the abdominal main vein of the rats, and the prothrombin time was measured by the Quick's one-step method."}}, "note": "“Also recorded” adds a separate entry of the source."}
{"substance": "dolichol", "values": [{"measurement": "Disappearance of corneal reflex", "setting": "corneal reflex", "result": "no disappearance of corneal reflex"}, {"measurement": "Local anesthetic action", "setting": "corneal reflex", "result": "no local anesthetic action was observed"}, {"measurement": "Chronotropic action", "setting": "extracted atrium", "result": "nor chronotropic action"}, {"measurement": "Inotropic action", "setting": "extracted atrium", "result": "no inotropic"}, {"measurement": "Diuretic action (amount of urine)", "setting": "Diuretic action in rats", "result": "no significant difference was noted"}, {"measurement": "Effect on behaviors, nervous symptoms, autonomic nervous symptoms and toxic symptoms", "setting": "mice", "result": "no effect was observed"}, {"measurement": "Direct action on extracted ileum", "setting": "extracted ileum", "result": "no direct action"}, {"measurement": "Water solubility", "setting": "Water solubility", "result": "water-insoluble"}, {"measurement": "59Fe incorporation rate (%), dolichol administered group", "setting": "erythropoiesis; 48 hours, control group 48.2", "result": 50.2, "unit": "%"}, {"measurement": "Erythropoiesis enhancing ratio (%)", "setting": "erythropoiesis; percent increase of 59Fe incorporation rate vs control", "result": "+4.2%"}, {"measurement": "Time of duration of tonic extension (T. E.)", "setting": "[1]", "result": "no significant difference was noted"}, {"measurement": "Prothrombin time", "setting": "blood coagulation system", "result": "tended to become longer; also recorded: no significant difference was noted"}]}
